Data on two molecules can be found in ChEMBL document CHEMBL1132796, “Multistep solution-phase parallel synthesis of spiperone analogues” (Bioorg Med Chem Lett, 2000).

Structures are written as SMILES.

A word on the IC50: it is the concentration that gives 50% inhibition. Lower therefore signals inhibition by little substance. In general, Ki refers to a measure of affinity in units of concentration, obtained from inhibition or displacement. A higher Ki goes with weaker binding.

The target of assay [1] is T1, 5-hydroxytryptamine receptor 2A (Homo sapiens, UniProt P28223). The assay can be described thus: Compound was evaluated for its inverse agonist activity against 5-hydroxytryptamine 2A receptor. It is filed as functional.
The target in assay [2] is T1, 5-hydroxytryptamine receptor 2A. In words: Compound was evaluated for its binding against 5-hydroxytryptamine 2A receptor.

T1 sequence (P28223 whole entry): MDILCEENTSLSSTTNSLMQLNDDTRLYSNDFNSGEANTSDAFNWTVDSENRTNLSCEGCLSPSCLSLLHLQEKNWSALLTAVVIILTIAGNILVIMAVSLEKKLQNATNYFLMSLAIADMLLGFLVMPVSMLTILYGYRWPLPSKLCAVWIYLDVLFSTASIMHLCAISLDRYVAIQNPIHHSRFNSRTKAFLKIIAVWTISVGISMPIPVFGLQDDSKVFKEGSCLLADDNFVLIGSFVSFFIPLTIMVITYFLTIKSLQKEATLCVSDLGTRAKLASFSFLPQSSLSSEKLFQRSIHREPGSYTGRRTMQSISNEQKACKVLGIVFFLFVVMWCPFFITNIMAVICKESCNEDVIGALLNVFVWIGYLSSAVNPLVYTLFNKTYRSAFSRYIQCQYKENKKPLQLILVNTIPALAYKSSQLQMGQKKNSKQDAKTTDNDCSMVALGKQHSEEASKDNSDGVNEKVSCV

Regarding `CC(C)NC(=O)N(C1CCCCCCC1)C1CCN(CCCOc2ccc(F)cc2)CC1`, the IC50 in assay [1] was 0.0794 µM.

In the case of `CCC(=O)N(C1CCCCCCC1)C1CCN(CCCOc2ccc(F)cc2)CC1`, the affinity in assay [2] corresponds to a Ki of 0.02 µM. In assay [1], the IC50 was 0.0126 µM.
